Experimental data published in publication PMC4326964, “Probing the substrate specificity of Trypanosoma brucei GlcNAc-PI de-N-acetylase with synthetic substrate analogues” (Organic & Biomolecular Chemistry, 2014).
“Also recorded” adds a separate entry of the source.

Experiments:
[1] = target: T1, T. brucei GlcNAc-PI de-N-acetylase (Trypanosoma brucei brucei, UniProt Q8I8A5); conditions: previous studies; cited from earlier work
[2] = target: T1, T. brucei GlcNAc-PI de-N-acetylase; test: Inhibition of turnover of α-D-GlcpNAc-IPC18 (3) in T. brucei cell-free system, LC-MS/MS assay; type: biochemical; conditions: inhibition of turnover of 3; tested at 100 μM
Experimental: Since the majority of the compounds were not processed by the T. brucei GlcNAc-PI de-N-acetylase, we tested their ability to inhibit the turnover of the α-D-GlcpNAc-IPC18 (3) substrate by the T. brucei GlcNAc-PI de-N-acetylase in the LC-MS/MS assay.
Inhibition assays were performed in 96-well plates in 100 μL final volume, with 1% v/v DMSO with or without inhibitor. Trypanosome cell-free system (2.5 × 10^6 cell equivalents per assay) in incorporation buffer were added to wells containing 500 pmol α-D-GlcpNAc-IPC18 (3) with or without inhibitor and incubated at 37 °C for 1 h. The reaction was quenched and the glycolipids enriched and analyzed by LC-MS/MS as described below.
(§1) Enrichment of glycolipids was performed in a 96-well plate format. Reactions were quenched by addition of 200 μL of 5% propan-1-ol, 5 mM NH4OAc, and the glycolipids were bound to C18 resin (50 mg Isolute Array cartridge), washed three times with 200 μL 5% propan-1-ol, 5 mM NH4OAc and eluted with 100 μL 40% propan-1-ol, 5 mM NH4OAc into a 96-well collection plate.
(§2) Glycolipids were analyzed by liquid chromatography coupled to an electrospray tandem mass spectrometer (LC-MS/MS). Samples (40 μL) were injected directly from a 96-well plate onto a 10 × 1 mm C18 column (ACE, […]) and then eluted using a binary gradient of 5–80% propan-1-ol in 5 mM NH4OAc (Dionex Ultimate 3000). The gradient consisted of 2 min 0% B, 2–4 min 0–100% B, 4–8 min 100%, 8–9 min 100–0% B, 9–10 min 0% B where buffer A consisted of 5% propan-1-ol, 5 mM NH4OAc and buffer B 80% propan-1-ol, 5 mM NH4OAc. The glycolipids were analysed on an electrospray triple quadrapole mass spectrometer (Micromass Quattro Ultima) in multiple reaction monitoring mode.
For inhibition assays, the turnover of the substrate α-D-GlcpNAc-IPC18 (3) was used to calculate the percentage of substrate conversion to product in a given sample. Inhibitor IC50 values were calculated using a four-parameter fit of eight-point potency curves derived from three independent experiments, and are quoted with a standard deviation.

[3] = target: T1, T. brucei GlcNAc-PI de-N-acetylase; test: Substrate recognition (de-N-acetylation turnover) in T. brucei cell-free system, LC-MS/MS assay; type: biochemical; conditions: for Substrate activity: recognised and processed (in words): N-acetylated analogue as substrate of the de-N-acetylase; for Turnover: conversion of N-acetylated compound to free amine, 37 °C, 1 h, ND = turnover not detected, for 53 measured via d6-Ac2O derivatisation of the free amine; for Relative turnover: turnover relative to α-D-GlcpNAc-PI (1)
Experimental: [8],[10] The N-acetylated analogues of these compounds were prepared as previously described to give compounds 47–53 (Fig. 3).
Using LC-MS/MS, multiple reaction monitoring of characteristic transitions for the N-acetylated and corresponding amine form of each compound was used to directly measure the rate of conversion of the N-acetylated compound to the free amine (Table 1). As no suitable transition was identified for the amine form of 13, the enzymatic turnover was accessed by reacting any free amine formed with d 6-Ac2O, and measuring the formation of the d 3-N-acetylated form by LC-MS/MS.
The synthesis of 1-D-6-O-(2-amino-2-deoxy-α-D-glucopyranosyl)-myo-inositol 1-(octadecyl phosphate), (4, α-D-GlcpNH2-IPC18), [15] has been described previously. The corresponding N-acetyl derivate α-D-GlcpNAc-IPC18 (3) was prepared by treatment with acetic anhydride, [13] and the concentration of stock solutions determined by measurement of the inositol content by selected ion-monitoring GC-MS. Bloodstream form Trypanosome brucei (variant MITat1.4) were isolated and membranes (cell-free system) prepared as described previously and stored at –80 °C.
Substrate recognition assays were performed using 500 pmol of α-D-GlcpNAc-PI (1) in incorporation buffer (25 mM Tris pH 8.0, 50 mM KCl, 50 mM MnCl2) and varying amounts of trypanosome cell-free system (0–15 × 10^6 cell equivalents per assay) in 96-well plates containing 100 μL final volume, and incubated at 37 °C for 1 h. The reaction was quenched and the glycolipids enriched and analyzed by LC-MS/MS as described below.
as §1
Prior to subsequent analysis, compound 13 was dried under nitrogen, resuspended in MeOH (100 μL) and any free amine reacted with excess d 6-Ac2O (1.5 μL) in the presence of pyridine (10 μL) for 15 min. The reaction was quenched with water (50 μL), dried under nitrogen and resuspended in 100 μL 40% propan-1-ol, 5 mM NH4OAc.
as §2
For each pseudodisaccharide analogue (7–12), standards of the N-acetylated compound and corresponding free amine were analyzed separately in order to identify unique transitions for use in subsequent multiple reaction monitoring experiments (Table 1). The ratio of the integrals for these transitions was used to calculate the percentage of substrate conversion to product in a given sample. For compound 13, standards of the N-acetylated compound and the d 3-N-acetylated form were analyzed separately and found to produce a common fragment for use in subsequent multiple reaction monitoring experiments.

T. brucei GPI pathway = test: Trypanosome cell-free system with [3H]-mannose labelling (HPTLC, fluorography); type: biochemical, Trypanosoma brucei
Source text: The ability of 49 and 48 to act as a substrate and inhibitor, respectively, of the T. brucei GPI pathway was confirmed using the trypanosome cell-free system with [^3H]-mannose labelling (Fig. 5). […] As these mannosylated compounds lack the inositol 2-OH group they cannot undergo inositol acylation, a prerequisite for the transfer of ethanolamine, and thus are not processed past the Man3-species.
Fig. 5 The trypanosome GPI biosynthesis in the cell-free system. A. The T. brucei cell-free system was incubated without exogenous substrate, with 1, α-D-GlcpNAc-PI (10 μM), or with 49 (100 μM) in the presence of GDP-[^3H]Mannose to stimulate the production of radiolabelled mannosylated GPI intermediates. B. Inhibition of the turnover of 3, α-D-GlcpNAc-IPC18 (10 μM), in the presence of 48 (100 μM). Glycolipid products were extracted, separated by high-performance thin-layer chromatography, and visualised by fluorography. DPM – dolichol-phosphate-mannose, M1 – Man1 species, M2 – Man2 species, M3 – Man3 species, A′ – EtNPMan3 species, where the identity and migration of the species depends on the glycolipid substrate employed.
The formation of GPI precursors is monitored by following the incorporation of [^3H]-mannose and then they were analysed using […] and fluorography as described previously.

T1 sequence (Q8I8A5 entry or part of it): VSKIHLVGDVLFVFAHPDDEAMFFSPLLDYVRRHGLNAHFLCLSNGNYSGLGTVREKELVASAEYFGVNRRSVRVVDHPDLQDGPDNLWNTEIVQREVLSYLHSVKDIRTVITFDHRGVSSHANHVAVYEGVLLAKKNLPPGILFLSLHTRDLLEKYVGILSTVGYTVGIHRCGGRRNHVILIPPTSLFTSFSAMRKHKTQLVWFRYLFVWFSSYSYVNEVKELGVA

SMILES	Inhibitory activity (in words) [2]	Substrate activity: recognised and processed (in words) [3]	also measured
CCCCCCCCCCCCCCCC(=O)OC[C@H](COP(=O)(O)O[C@@H]1[C@H](O)[C@H](O)[C@@H](O)[C@H](O)[C@H]1O[C@@H]1O[C@H](CO)[C@@H](O)[C@H](O)[C@H]1NC(C)=O)OC(=O)CCCCCCCCCCCCCCC [Compound 6]	–	–	Recognition and processing by the enzyme (in words) [1]: recognised and processed; also recorded: recognise and process
CCCCCCCCCCCCCCCCCCS(=O)(=O)N[C@@H]1CCCC[C@H]1O[C@@H]1O[C@H](CO)[C@@H](O)[C@H](O)[C@H]1NC(C)=O [Compound 51]	inability	inability	–
CCCCCCCCCCCCCCCC(=O)OCC(COP(=O)(O)OC1C(O)C(O)C(O)C(O)C1OC1OC(CO)C(O)C(O)C1NC(C)=O)OC(=O)CCCCCCCCCCCCCCC [Compound 1, 1-D-(2-acetamido-2-deoxy-α-D-glucopyranosyl)-myo-inositol 1-(1,2-di-O-hexadecanoyl-sn-glycerol 3-phosphate), reference compound]	–	–	Recognition and processing by the enzyme (in words) [1]: recognised and processed; Turnover [3]: 6.1 ± 0.9 pmol/10^6 cells equiv.; Relative turnover [3]: 100%
CCCCCCCCCCCCCCCCCCOP(=O)(O)O[C@@H]1CCCC[C@H]1O[C@H]1O[C@H](CO)[C@@H](O)[C@H](O)[C@H]1NC(C)=O [Compound 47]	act as inhibitors	–	–
CCCCCCCCCCCCCCCCCCOP(=O)(O)O[C@@H]1CCCC[C@H]1OCC(CO)NC(C)=O (stereo partly shown) [Compound 53]	inactivity	inactivity	–
CCCCCCCCCCCCCCCCCCOP(=O)(O)O[C@@H]1CCCC[C@H]1O[C@@H]1O[C@H](CO)[C@@H](O)[C@H](O)[C@H]1NC(C)=O [Compound 48]	act as inhibitors	–	Inhibition of priming of the cell-free system with 3 (T. brucei GPI pathway; 3 (α-D-GlcpNAc-IPC18) at 10 μM, inhibitor at 100 μM): efficiently prevented
CCCCCCCCCCCCCCCC(=O)OC[C@H](COP(=O)(O)O[C@@H]1CCCC[C@H]1O[C@H]1O[C@H](CO)[C@@H](O)[C@H](O)[C@H]1NC(C)=O)OC(=O)CCCCCCCCCCCCCCC [Compound 49]	–	both recognised and processed	Formation of mannosylated GPI intermediates on priming the cell-free system (T. brucei GPI pathway; 49 at 100 μM, GDP-[3H]Mannose, bands sensitive to jackbean α-mannosidase): three bands corresponding to the addition of 1–3 mannose residues; Turnover [3]: 1.3 ± 0.3 pmol/10^6 cells equiv.; Relative turnover [3]: 22%
CCCCCCCCCCCCCCCCCCOP(=O)(O)OC1C(O)C(O)C(O)C(O)C1OC1OC(CO)C(O)C(O)C1NC(C)=O (stereo not shown) [Compound 3, reference compound]	–	–	Turnover [3]: 27.0 ± 6.0 pmol/10^6 cells equiv.; Relative turnover [3]: 450%
CCCCCCCCCCCCCCCCCCS(=O)(=O)N[C@@H]1CCCC[C@H]1O[C@H]1O[C@H](CO)[C@@H](O)[C@H](O)[C@H]1NC(C)=O [Compound 52]	inability	inability	–
CCCCCCCCCCCCCCCC(=O)OC[C@H](COP(=O)(O)O[C@H]1[C@@H](O)[C@@H](O)[C@H](O)[C@@H](O)[C@@H]1O[C@H]1O[C@H](CO)[C@@H](O)[C@H](O)[C@H]1NC(C)=O)OC(=O)CCCCCCCCCCCCCCC [Compound 5]	–	–	Recognition and processing by the enzyme (in words) [1]: recognise and process
CCCCCCCCCCCCCCCC(=O)OC[C@H](COP(=O)(O)O[C@@H]1CCCC[C@H]1O[C@@H]1O[C@H](CO)[C@@H](O)[C@H](O)[C@H]1NC(C)=O)OC(=O)CCCCCCCCCCCCCCC [Compound 50]	neither a substrate nor an inhibitor	neither a substrate nor an inhibitor	–
